Several values for one entry are separate records, joined by “and”; a condition that tells them apart may be missing. Identical values can stand only once. Like-named read-outs stand apart in the source and are kept apart here.
Legend:
[1] = NO release assay (Griess assay, phosphate buffer with L-cysteine); details: for NO Released (%) 1 h / NO Released (%) 24 h / NO Released (%) 48 h: % NO2− (μmol/μmol) relative to initial concentration (100 μM), L-cysteine; for NO Released (%) 1 h: phosphate buffer pH 7.4, 37 °C; for NO Released (%) 24 h: phosphate buffer pH 7.4, 24 h; for NO Released (%) 48 h: phosphate buffer pH 7.4, 48 h; for Fold Change 24 h/1 h: ratio of NO released at 24 h to 1 h; for Fold Change 48 h/1 h: ratio of NO released at 48 h to 1 h; for Fold Change 48 h/24 h: ratio of NO released at 48 h to 24 h; for NO-donor capacity: Griess assay, time point not stated
[2] = test system: JU77 (human mesothelioma cell line); assay: cells; format: cell-based; details: for IC50: Homo sapiens, MTT assay, 72 h exposure; for SFJU77 (selectivity factor): IC50(MRC-5)/IC50(JU77); for times higher cytotoxicity in human MPM cells compared to human lung fibroblasts: 72 h
Protocol: (§1) AB1 (mouse malignant mesothelioma cell line) and JU77 (human mesothelioma cell line) were obtained from Cell Bank Australia; MRC-5 (human embryonic lung fibroblast cell line) was obtained from ATCC. […] Cells were grown in tissue culture flasks (75 cm^2 and 25 cm^2, SPL Life Sciences, Pocheon, South Korea). […] The cytotoxicity of compounds was determined using the MTT colorimetric test. Cells were harvested from culture flasks by trypsinization and seeded into Cellstar 96-well microculture plates at a seeding density of 6000 cells per well (6 × 10^4 cells per mL). After the cells were allowed to resume exponential growth for 24 h, they were exposed to drugs at different concentrations in media for 72 h. The tested compounds were diluted in the complete medium at the desired concentrations added to each well (100 μL) and serially diluted to other wells. After 72 h of exposure, the medium was replaced with MTT (5 mg mL^−1, 100 μL per well) and incubated for an additional 50 min. Subsequently, the medium was aspirated, and the purple formazan crystals formed in viable cells were dissolved in DMSO (100 μL per well). […] The evaluation was based on means from at least three independent experiments, each comprising three replicates per concentration level.

[3] = test system: AB1 (mouse malignant mesothelioma cell line); assay: MTT cytotoxicity assay, AB1 cells; format: cell-based; details: 72 h exposure
Protocol: as §1

[4] = test system: MRC-5 (human embryonic lung fibroblast cell line); assay: MTT cytotoxicity assay, MRC-5 cells; format: cell-based; details: MRC5, 72 h exposure
Protocol: as §1

[5] = test system: AB1 and JU77 mesothelioma cell lines; assay: cells; format: cell-based, mouse and human; details: for IC50: MPM, range over AB1 and JU77, 72 h MTT, read-out: IC50 values in both cell lines
Protocol: as §1

[6] = test system: AB1 (mouse malignant mesothelioma cell line); set-up: method as in doi:10.1039/D4NJ02047B; details: MTT assay, 72 h exposure; ref [33]; cited from earlier work
[7] = test system: MRC-5 (human embryonic lung fibroblast cell line); set-up: method as in doi:10.1039/D4NJ02047B; details: MTT assay, 72 h exposure; ref [33]; cited from earlier work
[8] = test system: JU77 (human mesothelioma cell line); set-up: method as in doi:10.1039/D4NJ02047B; details: ref [33], cited from earlier work

| Structure (SMILES) | IC50 [2] [µM] | IC50 [5] [nM] | NO Released (%) 1 h [1] | NO Released (%) 24 h [1] [%] | NO Released (%) 48 h [1] [%] | Fold Change 24 h/1 h [1] | Fold Change 48 h/1 h [1] | Fold Change 48 h/24 h [1] | SFJU77 (selectivity factor) [2] | IC50 [3] [µM] | IC50 [4] [µM] | cytotoxicity (in words) [5] | selectivity for cancer cells (in words) ([2]; MPM cells vs MRC-5 human lung fibroblasts) | IC50 [6] [µM] | IC50 [7] [µM] | SFJU77 (selectivity factor) ([8]; IC50(MRC-5)/IC50(JU77)) | IC50 ([8]; MTT assay, 72 h exposure) [µM] | times higher cytotoxicity in human MPM cells compared to human lung fibroblasts [2] | NO-donor capacity [1] [%] |
| --- | --- | --- | --- | --- | --- | --- | --- | --- | --- | --- | --- | --- | --- | --- | --- | --- | --- | --- | --- |
| CCOc1no[n+]([O-])c1S(=O)(=O)c1ccccc1 [CHF-2363, 4-ethoxy-3-phenylsulphonylfuroxan, reference compound] | – | – | 26 ± 10% | 71 ± 4 | 77 ± 9 | 2.7 | 3.0 | 1.1 | – | – | – | – | – | – | – | – | – | – | – |
| COCc1nc(-c2no[n+]([O-])c2C#N)no1 [Compound 2f, 3-Cyano-4-(5-(methoxymethyl)-1,2,4-oxadiazolyl)furoxan] | > 150 | – | 50 ± 7% | 66 ± 11 | 71 ± 11 | 1.3 | 1.4 | 1.1 | – | > 150 | > 150 | no cytotoxic effects | – | – | – | – | – | – | – |
| N.N.[Cl][Pt][Cl] [Cisplatin, cisplatin] | – | – | – | – | – | – | – | – | – | – | – | – | – | 5.8 ± 1 | 3.1 ± 1.2 | 0.7 | 4.2 ± 0.5 | – | – |
| N#Cc1c(-c2noc(-c3cccc([N+](=O)[O-])c3)n2)no[n+]1[O-] [Compound 2c, 3-Cyano-4-(5-(3-nitrophenyl)-1,2,4-oxadiazolyl)furoxan] | 1.2 ± 0.2 | – | 61 ± 8% | 107 ± 8 | 107 ± 10 | 1.8 | 1.8 | 1.0 | 3.6 | 2.8 ± 0.5 | 4.3 ± 0.3 | – | – | – | – | – | – | 2.4-3.6 times | > 100 |
| COc1ccc(-c2nc(-c3no[n+]([O-])c3C#N)no2)cc1 [Compound 2h, 3-Cyano-4-(5-(4-methoxyphenyl)-1,2,4-oxadiazolyl)furoxan] | 2.9 ± 0.3 | – | 54 ± 6% | 79 ± 5 | 86 ± 4 | 1.5 | 1.6 | 1.1 | 1.4 | 4.1 ± 0.7 | 4.2 ± 0.7 | – | – | – | – | – | – | – | – |
| NC(=O)c1c(CO)no[n+]1[O-] [CAS-1609, 3-carbamoyl-4-(hydroxymethyl)furoxan, reference compound] | – | – | 27% and 27 ± 3% | 68 ± 6 | 73 ± 6 | 2.5 | 2.7 | 1.1 | – | – | – | – | – | – | – | – | – | – | – |
| N#Cc1c(-c2noc(-c3ccccc3[N+](=O)[O-])n2)no[n+]1[O-] [Compound 2d, 3-Cyano-4-(5-(2-nitrophenyl)-1,2,4-oxadiazolyl)furoxan] | 0.87 ± 0.07 | 870 to 1800 | 69 ± 1% | 86 ± 3 | 89 ± 3 | 1.2 | 1.3 | 1.0 | 2.5 | 1.8 ± 0.2 | 2.2 ± 0.2 | – | – | – | – | – | – | 2.4-3.6 times | – |
| N#Cc1c(-c2noc(-c3ccccc3Cl)n2)no[n+]1[O-] [Compound 2j, 4-(5-(2-Chlorophenyl)-1,2,4-oxadiazolyl)-3-cyanofuroxan] | 1.4 ± 0.2 | – | 53 ± 4% | 80 ± 3 | 84 ± 2 | 1.5 | 1.6 | 1.1 | 2.4 | 2.1 ± 0.3 | 3.3 ± 0.3 | – | – | – | – | – | – | 2.4-3.6 times | – |
| N#Cc1c(-c2noc(-c3ccco3)n2)no[n+]1[O-] [Compound 2k, 3-Cyano-4-(5-(2-furyl)-1,2,4-oxadiazolyl)furoxan] | 0.99 ± 0.13 | 870 to 1800 | 73 ± 7% | 97 ± 6 | 104 ± 12 | 1.3 | 1.4 | 1.1 | 1.5 | 1.4 ± 0.4 | 1.5 ± 0.3 | – | – | – | – | – | – | – | > 100 |
| N#Cc1c(-c2ncon2)no[n+]1[O-] [Compound 2l, 3-Cyano-4-(1,2,4-oxadiazolyl)furoxan] | 5.4 ± 1.3 | 5400 to 7000 | 42 ± 5% | 68 ± 8 | 72 ± 8 | 1.6 | 1.7 | 1.1 | 0.9 | 7 ± 1.3 | 4.6 ± 1 | – | – | – | – | – | – | – | – |

More lines, main results first:

| IC50 [2] [µM] | IC50 [5] [nM] | Structure (SMILES) | NO Released (%) 1 h [1] | NO Released (%) 24 h [1] [%] | NO Released (%) 48 h [1] [%] | Fold Change 24 h/1 h [1] | Fold Change 48 h/1 h [1] | Fold Change 48 h/24 h [1] | SFJU77 (selectivity factor) [2] | IC50 [3] [µM] | IC50 [4] [µM] | cytotoxicity (in words) [5] | selectivity for cancer cells (in words) ([2]; MPM cells vs MRC-5 human lung fibroblasts) | IC50 [6] [µM] | IC50 [7] [µM] | SFJU77 (selectivity factor) ([8]; IC50(MRC-5)/IC50(JU77)) | IC50 ([8]; MTT assay, 72 h exposure) [µM] | times higher cytotoxicity in human MPM cells compared to human lung fibroblasts [2] | NO-donor capacity [1] [%] |
| --- | --- | --- | --- | --- | --- | --- | --- | --- | --- | --- | --- | --- | --- | --- | --- | --- | --- | --- | --- |
| 3.7 ± 1 | – | N#Cc1c(-c2noc(-c3ccccc3)n2)no[n+]1[O-] [Compound 2a, 3-Cyano-4-(5-phenyl-1,2,4-oxadiazolyl)furoxan] | 50 ± 8% | 59 ± 5 | 89 ± 6 | 1.2 | 1.8 | 1.5 | 1.0 | 3.4 ± 0.2 | 3.7 | – | – | – | – | – | – | – | – |
| 2.7 ± 0.2 | – | N#Cc1c(-c2noc(-c3ccc([N+](=O)[O-])cc3)n2)no[n+]1[O-] [Compound 2b, 3-Cyano-4-(5-(4-nitrophenyl)-1,2,4-oxadiazolyl)furoxan] | 51 ± 11% | 74 ± 1 | 80 ± 4 | 1.5 | 1.6 | 1.1 | 1.6 | 4.1 ± 0.9 | 4.4 ± 0.6 | – | – | – | – | – | – | – | – |
| 4.2 ± 0.8 | – | N#Cc1c(-c2noc(-c3ccncc3)n2)no[n+]1[O-] [Compound 2e, 3-Cyano-4-(5-(pyridin-4-yl)-1,2,4-oxadiazolyl)furoxan] | 53 ± 7% | 87 ± 13 | 87 ± 11 | 1.6 | 1.6 | 1.0 | 1.1 | 7.9 ± 2 | 4.7 ± 0.3 | – | low selectivity for cancer cells | – | – | – | – | – | – |
| 3.1 ± 0.2 | – | Cc1ccc(-c2nc(-c3no[n+]([O-])c3C#N)no2)cc1 [Compound 2g, 3-Cyano-4-(5-(p-tolyl)-1,2,4-oxadiazolyl)furoxan] | 59 ± 1% | 74 ± 6 | 81 ± 10 | 1.3 | 1.4 | 1.1 | 1.5 | 4.9 ± 1.4 | 4.8 ± 0.3 | – | – | – | – | – | – | – | – |
| 1.6 ± 0.4 | – | COc1ccc(-c2nc(-c3no[n+]([O-])c3C#N)no2)cc1OC [Compound 2i, 3-Cyano-4-(5-(3,4-dimethoxyphenyl)-1,2,4-oxadiazolyl)furoxan] | 54 ± 14% | 82 ± 14 | 94 ±14 | 1.5 | 1.7 | 1.1 | 2.5 | 3.3 ± 0.7 | 4 ± 0.6 | – | – | – | – | – | – | 2.4-3.6 times | – |

Source: paper PMC11859074, “Exploring the Anticancer Potential of NO-Donor Oxadiazole Assemblies Against Malignant Pleural Mesothelioma” (Pharmaceutics, 2025)
